Test results: patent publication US9884813B1, “Pharmaceutically acceptable salts of B-guanidinopropionic acid with improved properties and uses thereof” (Rgenix, Inc., priority 2017, dated 2018)
Several values for one entry are separate records, joined by “and”; a condition that tells them apart may be missing. Equal values may be shown once. Entries after “also recorded” stand apart in the source; their conditions may differ.

Key:
[1] = Roller compaction feasibility (slugs, capsule fill)
Experimental: Roller compaction feasibility was performed by producing slugs using a single station hand press then carefully hand milling those slugs so that all granules were small enough to pass through a size US 18 mesh. These granules were then filled into size 0 capsules by both the free flow and tamp method. A total of N=5 capsules were filled for each lot for each method. The average net fill weight results are given below in […]. The same issue was not seen when compressing the succinate salt form of β-GPA. Slugs produced around 1500 PSI produced slugs hard enough to be tested for hardness. The resulting slug parameters can be seen in Table 33.

Bulk and tapped density = type: physicochemical
Experimental: The bulk density of β-GPA oxalate (Pattern 18 B), succinate (Pattern 15A), and fumarate (Pattern 7A) were determined by pouring in a known amount of salt (g) into a measuring cylinder. The volume (Vi) occupied by the salt was recorded and the bulk density (ρB) was determined using equation 1. ρB=g/Vi (1)
The tapped densities of the salts were determined using a Tap density analyzer. A known amount of salt was poured (g) into a measuring cylinder and the initial volume was recorded and tapped using a Tap density analyzer. The final volume (Vf) after tapping was recorded and the tapped density (ρT) was calculated by using equation 2. ρT=g/Vf (2)

[2] = Solid form stability under stressed conditions (wet, dry, high humidity) by XRPD; type: physicochemical
Experimental: The solid form stability of each salt was studied by XRPD under stressed conditions: wet, dry (45° C. under vacuum) and high humidity (RH >95%).

[3] = Carr's index and Hausner ratio (predicted flowability); type: physicochemical; conditions: for Carr's index / Hausner ratio: calculated from bulk and tapped volumes; for Flow character: scale of Table 6 (Carr's index)
Source text: The flow properties of β-GPA are sub-optimal. The bulk density is 0.389 g/cc and the tapped density is 0.627 g/cc. These measurements can be used to calculate the Carr's index and Hausner ratio for a substance. The Carr's index and Hausner ratio are indicators of flowability of a powder. As known in the art, e.g., as described in Carr R. L. Chem. Eng. 1965, 72, 163-168, the relationship to flowability of a powder to the Carr's index and Hausner ratio is based on the scale shown in Table 6 below.
Carr's index or Carr's compressibility index (C) is an indication of the compressibility of a powder. It can be calculated using the equation below: Carr's index (C)=100(Vi−Vf)/Vi (3) A Carr's index greater than 25 is considered to be an indication of poor flowability while a value below 15 is an indication of good flowability.
The Hausner ratio is a number that is correlated to the flowability of a powder or granular material. It is calculated by using the equation below: Hausner ratio=Vi/Vf (4)

[4] = Solid form stability of salts in different solvents (slurry, XRPD); type: physicochemical; conditions: 48 hours, room temperature
Experimental: Three salts were studied for solid form stability in water (disproportionation test), methanol, acetonitrile, and acetone:water (9:1) for 48 hours at room temperature.

[5] = Carr's index and Hausner ratio (predicted flowability); type: physicochemical; conditions: Table 18, scale of Table 17
[6] = Flowability measurement using Hanson Flodex unit; type: physicochemical; conditions: for flow character from the experimental data: summary of density and Flodex measurements
Source text: Method: A cylindrical vessel is secured to the stand and above that a funnel is also secured such that the bottom of the funnel is close to the vessel. A powder load of ≈50-60 g is then poured through the funnel into the middle of the cylinder. The lever device is pulled to open the hole in the disk quickly and without vibration. If a powder slowly flows through the small-diameter holes, leaving a cavity shaped like an upside-down, truncated cone, the test is considered positive. If a powder flocculates in bulk and falls abruptly, forming a cylindrical cavity, the test is considered negative. […] If the experiment is negative, the powder is tested again with a disk having a larger hole.

[7] = Solid form stability of salts in different solvents (slurry, XRPD); type: physicochemical; conditions: water, 6 hours, room temperature
[8] = Solid form stability at 40° C. and 75% humidity; type: physicochemical; conditions: for solid form stability (XRPD): 40° C. and 75% RH for seven days
Experimental: Solid form stability studies of β-GPA fumarate, succinate, and oxalate were carried out at 40° C. and 75% RH for seven days. Around 30 mg of the salts were placed in 4 mL vials which were placed in a saturated solution of sodium chloride (2 mL) with lids closed at 40° C. […]

[9] = Dynamic vapor sorption (DVS) with XRPD of the post-DVS sample; type: physicochemical; conditions: for solid form by XRPD after the DVS experiment: post DVS sample
Experimental: Samples were analyzed using an Aquadyne DVS-2 gravimetric water sorption analyzer. The relative humidity was adjusted between 2-95% and the weight of the sample was continuously monitored and recorded.
[…]: β-GPA maleate (1:1) Form II, β-GPA fumarate (1:1), β-GPA maleate (2:1), β-GPA succinate (2:1) and β-GPA oxalate (1:1) were analyzed by DVS experiment followed by XRPD analysis of the sample at the end of the experiment.
Sample 2162-64-1 was analyzed by DVS in triplicate and the post DVS samples were characterized by XRPD to identify the form at the end of the experiment.

[10] = Compression profile evaluation (tabletability); type: physicochemical
Experimental: Compression profiling was also performed on both the free base and the salt form of the API. A standard formulation containing plastic diluent, brittle diluent, disintegrant and lubricant was evaluated at a loading of 25% and 50% API. The diluent level was adjusted accordingly, but the ratio of plastic to brittle filler was set a 1:1. It was decided to use a representative tablet formulation to perform compression profiling to mitigate the cohesion and sticking issues seen in the free base and the salt form during the roller compaction feasibility evaluation. Table 37 details the formulation compositions tested.
These blends were then compressed into 100 mg compacts using 0.25-inch flat faced tooling at increasing compaction pressures. A total of N=3 compacts were produced at each compaction pressure and were measured for weight, thickness and hardness. The compression stresses used were calculated by dividing the force applied to the compact by the surface area of the 0.25 in flat faced tooling. The tensile strength of the compacts was calculated using the equations derived for flat faced tablets. For each formulation, a tabletability (tensile strength vs. compression pressure) was generated. For the purposes of this study the tabletability profile was examined to determine the compaction pressure required in order to produce a tablet of acceptable tensile strength. Historically a tablet with a tensile strength of 2.0 Mpa is sufficient to both withstand friability and to not impact disintegration and dissolution.

[11] = Experiments on lyophilized 2:1 fumarate polymorph (Pattern 7C); type: physicochemical
Experimental: 1 g of 2:1 β-GPA fumarate was dissolved in 10 mL of water at 50° C. in a round bottom flask. The round bottom flask was placed in the dry ice/acetone cooling bath (−78° C.) until the sample solidified followed by lyophilization for 48 hours. A white solid was obtained which was analyzed by XRPD, DSC and ^1H-NMR. Sample ID: 2162-84-1.
To confirm the above hypothesis the following experiments (Table 25) were performed on the lyophilized sample (Pattern 7C): […]

[12] = Dynamic vapor sorption (DVS) with XRPD of the post-DVS sample; type: physicochemical; conditions: relative humidity between 0-95 percent
[13] = Average of 5 slugs, average Compression Force 1600.00 PSI (28.67 MPa)
[14] = slug, Compression Force 1500 PSI, Compression Stress 27 MPa, listed as β-Guanidinopropionic Acid Succinate Salt
[15] = slug, Compression Force 2000 PSI, Compression Stress 36 MPa

## N=C(N)NCCC(=O)O.N=C(N)NCCC(=O)O.O=C(O)CCC(=O)O [β-GPA succinate (2:1)]
[1]; [13]
  Calculated Solid Fraction: 0.80
  Tablet Hardness: 4.86 kp
  Tensile Strength: 0.34 MPa
[1]; slug, Compression Force 1500 PSI, Compression Stress 27 MPa
  Calculated Solid Fraction: 0.79
[1]; [14]
  Tablet Hardness: 5.1 kp and 3.7 kp and 4.4 kp and 4.3 kp
  Tensile Strength: 0.35 MPa and 0.25 MPa and 0.30 MPa and 0.29 MPa
[1]; [15]
  Calculated Solid Fraction: 0.85
  Tablet Hardness: 6.8 kp
  Tensile Strength: 0.50 MPa
Bulk and tapped density
  Bulk density: 0.405 g/cc
  Tapped density: 0.472 g/cc
[2]; dry (45° C. under vacuum)
  Dry_XRPD pattern: Pattern 15A
[2]; dry conditions
  stability in dry conditions: stable
[2]; high humidity (RH >95%)
  Humid_XRPD pattern: Pattern 15A
[2]; high humidity conditions
  stability under high humidity conditions: stable
[2]; wet
  Wet_XRPD pattern: Pattern 15A
[3]
  Carr's index: 14.3
  Hausner ratio: 1.167
[3]; predicted
  Flow character: Good (11-15)
[4]; acetone:water (9:1)
  XRPD pattern after slurry: presence of β-GPA
[4]; acetonitrile
  XRPD pattern after slurry: retain its original form
[4]; acetonitrile, listed as 2:1 β-GPA succinate
  XRPD pattern after slurry: retain its XRPD pattern
[4]; methanol
  XRPD pattern after slurry: retain its original form
[4]; methanol, listed as 2:1 β-GPA succinate
  XRPD pattern after slurry: retain its XRPD pattern
[5]
  Flow character: Good (11-15)
[6]; Disc pore size 5 mm
  Did solid pass?: No
[6]; Disc pore size 6 mm
  Did solid pass?: No
[6]; Disc pore size 7 mm
  Did solid pass?: Yes
[6]; Disc pore size 8 mm
  Did solid pass?: Yes
[6]; Disc pore size 10 mm
  Did solid pass?: Yes
[6]; Disc pore size 18 mm
  Did solid pass?: Yes
[6]; Disc pore size 20 mm
  Did solid pass?: Yes
[6]; Disc pore size 22 mm
  Did solid pass?: Yes
[6]; Disc pore size 24 mm
  Did solid pass?: Yes
[6]
  flow character from the experimental data: good
[7]
  XRPD pattern after slurry: two peaks from β-GPA
[7]; listed as 2:1 β-GPA succinate
  XRPD pattern after slurry: started showing up peaks from β-GPA
[8]
  solid form stability (XRPD): retained their original XRPD pattern; also recorded: stable
[8]; listed as 2:1 succinate salt
  solid form stability (XRPD): stable
[9]
  solid form by XRPD after the DVS experiment: retained their XRPD
[9]; listed as 2:1 succinate salt
  solid form by XRPD after the DVS experiment: no form change
[9]; listed as 2:1 β-GPA succinate
  solid form by XRPD after the DVS experiment: no form change
[10]; 25% API loading formulation
  compaction force required to produce a tablet of 2.0 Mpa tensile strength: 22.7 kN
  compression stress (compaction pressure) required to produce a tablet of 2.0 Mpa tensile strength: 150 Mpa
[10]; 50% API loading formulation
  compaction force required to produce a tablet of 2.0 Mpa tensile strength: ~34.8 kN
  compression stress (compaction pressure) required to produce a tablet of 2.0 Mpa tensile strength: ~230 Mpa

## N=C(N)NCCC(=O)O.N=C(N)NCCC(=O)O.O=C(O)/C=C/C(=O)O [Pattern 7C]
[11]
  stability of the polymorph: unstable

## N=C(N)NCCC(=O)O [β-GPA, β-Guanidinopropionic acid, reference compound]
[1]; slugs produced using up to 2000 psi
  calculated solid fraction of slugs: 74%
Bulk and tapped density
  Bulk density: 0.389 g/cc
  Tapped density: 0.627 g/cc
[12]
  moisture absorbed and desorbed: around 0.1%
[3]
  Carr's index: 37.9
  Hausner ratio: 1.610
[3]; predicted
  Flow character: Very poor (32-37)
[3]; predicted, scale of Table 6 (Hausner ratio)
  Flow character by Hausner ratio: Very very poor (>1.60)
[5]
  Flow character: Very very poor (>38)
[6]; Disc pore size 18 mm
  Did solid pass?: No
[6]; Disc pore size 20 mm
  Did solid pass?: No
[6]; Disc pore size 28 mm
  Did solid pass?: No
[6]; Disc pore size 30 mm
  Did solid pass?: No
[6]; Disc pore size 34 mm
  Did solid pass?: Yes
[6]
  flow character from the experimental data: poor
[8]; 40° C. at 75% humidity after 4 weeks
  degradation: No degradation was observed
[9]; 80% humidity at 25° C.
  water uptake: ~0.3%
[9]
  solid form by XRPD after the DVS experiment: No change in the solid form
[10]; 25% API loading formulation
  compression stress (compaction pressure) required to produce a tablet of 2.0 Mpa tensile strength: roughly 235 Mpa
[10]; 50% API loading formulation
  compression stress (compaction pressure) required to produce a tablet of 2.0 Mpa tensile strength: incapable of reaching a tablet with 2.0 Mpa
